Experimental findings from article PMC3136114 (2011) are described below.

The assay relates to c-Myc duplex (18 bp, d(AGGGTGGGG)2:d(CCCCACCCT)2) (DNA, duplex) AGGGTGGGGAGGGTGGGG/CCCCACCCTCCCCACCCT
Nature of the assay: UV absorption titration, Scatchard. As to conditions: 137 mM Na+ (NaCl), 5.4 mM K+ (KCl), 1.3 mM Ca2+, 1 mM Mg2+; Hanks' buffer, pH 7.2, 20 °C; single type of site; per site.

With `O=C1NC(=O)c2c1c1c3ccccc3[nH]c1c1c2c2ccccc2n1[C@@H]1OC[C@H](O)[C@H](O)[C@H]1O`, the K1 is 0.8 ± 0.1 × 10^6 M^-1.
